Settings: 101.33 kPa, Liquid, Levitation methods

[Mo] [molybdenum]
Settings	viscosity [mPa·s]
2573 K	6.7
2600 K	6.6
2650 K	6.2
2700 K	5.9
2750 K	5.7
2800 K	5.4
2850 K	5.2
2896 K	5
2900 K	5
2950 K	4.8
3000 K	4.6
3050 K	4.5
3100 K	4.3
3150 K	4.2
3213 K	4

[Re] [rhenium]
Settings	viscosity [mPa·s]
3034 K	14.9
3050 K	14.6
3100 K	13.9
3150 K	13.2
3200 K	12.5
3250 K	12
3300 K	11.4
3350 K	10.9
3400 K	10.4
3450 K	10
3459 K	9.9
3500 K	9.6
3550 K	9.2
3600 K	8.8
3650 K	8.5
3675 K	8.4

[Ta] [tantalum]
Settings	viscosity [mPa·s]
2880 K	13.4
2900 K	13.1
2950 K	12.4
3000 K	11.7
3050 K	11.1
3100 K	10.6
3150 K	10.1
3200 K	9.6
3250 K	9.2
3293 K	8.9
3300 K	8.8
3350 K	8.4
3400 K	8.1
3450 K	7.8
3500 K	7.5
3514 K	7.4

[Os] [osmium]
Settings	viscosity [mPa·s]
3265 K	7.4
3290 K	7.2
3306 K	7
3315 K	7
3340 K	6.7
3365 K	6.5
3390 K	6.3
3415 K	6.1
3440 K	6
3465 K	5.8
3490 K	5.6
3515 K	5.5
3542 K	5.3

[W] [tungsten]
Settings	viscosity [mPa·s]
3155 K	16.7
3200 K	15.7
3250 K	14.6
3300 K	13.7
3350 K	12.8
3400 K	12
3450 K	11.3
3500 K	10.6
3550 K	10
3600 K	9.4
3634 K	9.1
3695 K	8.5

From the NIST ThermoML archive (doi:10.1016/j.jct.2013.05.036)
